Test results taken from patent US11560400B2, “Salts of diphosphate phosphoramidate of nucleosides as anticancer compounds” (NuCana plc, priority 2017, dated 2023).
“Also recorded” adds a separate entry of the source. Where two headings read alike, the source gives them in different places.

Legend:
CCRF-CEM = experiment: CellTiterGlo cell viability assay, CCRF-CEM; assay type: cell-based; conditions: 72 h; for EC50: read-out: Ab EC50
Method in brief: (§1)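 72 h CTG viability; 9-pt, 3.16-fold titration, 198 μM top to 19.8 nM final; duplicates; 0.5% DMSO final; standard growth conditions. Read-out: absolute EC50 and % inhibition at highest concentration.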

K562 = experiment: CellTiterGlo cell viability assay, K562; assay type: cell-based; conditions: for EC50: read-out: Ab EC50
Method in brief: as §1

HepG2 = experiment: CellTiterGlo cell viability assay, HepG2; assay type: cell-based; conditions: Homo sapiens, HepG2, 72 h; for EC50: read-out: Ab EC50
Method in brief: as §1

MOLT-4 = experiment: CellTiterGlo cell viability assay, MOLT-4; assay type: cell-based; conditions: MOLT-4, 72 h; for EC50: read-out: Ab EC50
Method in brief: as §1

[1] = system: KG1a LSCs and bulk tumour cells; experiment: γH2A.X phosphorylation assay (DNA damage) in purified LSCs and bulk tumour cells; assay type: cell-based; conditions: 2-hour exposure, hypoxic conditions (5% O2), in words
Procedure: KG1a cells were grown under hypoxic conditions for 7 days in order to generate 10^7 cells and increase the percentage of cells expressing an LSC phenotype. Subsequently, Lin^−/CD34^+/CD38^−/CD123^+ LSCs and Lin^−/CD34^+/CD38^+/CD123^+ ‘bulk’ tumour cells were purified by high speed cell sorting using a FACS Melody cell sorter (Becton Dickenson) and were placed back into hypoxic cell culture conditions prior to the addition of clofarabine or clofarabine diphosphate phosphoramidates.
Phosphorylation of the histone variant γH2A.X occurs as a rapid response to double strand DNA breaks. The γH2A.X Phosphorylation Assay Kit (Flow cytometry) is a cell-based assay formatted for flow cytometric detection of levels of phosphorylated Histone γH2A.X (Merck, UK). LSC and ‘bulk tumour’ cells were cultured in 96-well plates in the presence of clofarabine or clofarabine diphosphate phosphoramidates. After 2 h of exposure to drug, the cells were harvested by centrifugation and then fixed and permeabilised in preparation for staining and detection. Histone γH2A.X phosphorylated at serine 139 is detected by the addition of the anti-phospho-Histone γH2A.X conjugated to APC. Cells were then run on a flow cytometer to quantitate the number of cells staining positive for phosphorylated Histone γH2A.X.

KG1a cells = experiment: In vitro cytotoxicity, Annexin V/propidium iodide assay in KG1a cells; assay type: cell-based; conditions: for change of potency (mean LD50) under hypoxic versus normoxic conditions: 5% oxygen
Procedure: The acute myeloid leukaemia (AML) KG1a cell line was maintained in RPMI medium (Invitrogen, Paisley, UK) supplemented with 100 units/mL penicillin, 100 μg/mL streptomycin and 20% foetal calf serum. Cells were subsequently aliquoted (10^5 cells/100 μL) into 96-well plates and were incubated at 37° C. in a humidified normoxic (20% oxygen) or hypoxic (1% or 5% oxygen) atmosphere for 48 h in the presence of clofarabine, or clofarabine diphosphate phosphoramidates of the invention (1×10^−10M-1×10^−6M). In addition, control cultures were carried out to which no drug was added. Cells were subsequently harvested by centrifugation and were analysed by flow cytometry using the Annexin V assay.
Cultured cells were harvested by centrifugation and then resuspended in 195 μL of calcium-rich buffer. Subsequently, 5 μL of Annexin V (Caltag Medsystems, Botolph Claydon, UK) was added to the cell suspension and cells were incubated in the dark for 10 mins prior to washing. Cells were finally resuspended in 190 μL of calcium-rich buffer together with 10 μL of propidium iodide. Apoptosis was assessed by dual-colour immunofluorescent flow cytometry as described previously. Subsequently LD50 values (the dose required to kill 50% of the cells in a culture) were calculated for each nucleoside analogue and diphosphate phosphoramidate.
The data obtained in these experiments were evaluated using one-way ANOVA. All data was confirmed as Gaussian or a Gaussian approximation using the omnibus K2 test. LD50 values were calculated from the non-linear regression and line of best-fit analysis of the sigmoidal dose-response curves. All statistical analyses were performed using Graphpad Prism 6.0 software (Graphpad Software Inc., San Diego, Calif.).
The in vitro drug sensitivity of KG1a cells was assessed using the Annexin V/propidium iodide assay.

KG-1 = experiment: CellTiterGlo cell viability assay, KG-1; assay type: cell-based; conditions: Homo sapiens, KG-1, 72 h
Method in brief: as §1

HT29 = experiment: CellTiterGlo cell viability assay, HT29; assay type: cell-based; conditions: Homo sapiens, HT-29, 72 h, HT29, 72 h; for EC50: read-out: Ab EC50
Method in brief: as §1

in vitro = conditions: human, pooled cryopreserved hepatocytes, pH 7.3
RPMI-8226 = experiment: CellTiterGlo cell viability assay, RPMI-8226; assay type: cell-based, Human; conditions: Homo sapiens, RPMI-8226, 72 h; for EC50: read-out: Ab EC50
Method in brief: as §1

[2] = Homo sapiens, percentage inhibition at the highest concentration tested, read-out: Top Inh
[3] = percentage inhibition at the highest concentration tested, read-out: Top Inhibit

In the case of Nc1nc(Cl)nc2c1ncn2[C@@H]1O[C@H](CO)[C@@H](O)[C@@H]1F [Clofarabine, reference compound], the EC50 (CCRF-CEM; Table 4 classes) is reported as under 0.2 µM, the EC50 (CCRF-CEM; Homo sapiens, Table 3 classes) is reported as under 0.2 µM and the inhibition at 198 µM (CCRF-CEM; [2]) is reported as 98.7%. The inhibition at 198 µM (K562; Homo sapiens, K562, 72 h, percentage inhibition at the highest concentration tested, read-out: Top Inh) was 23%, the EC50 (K562; Homo sapiens, K562, 72 h, Table 3 classes) was over 10 µM and the EC50 (K562; K 562, 72 h, Table 4 classes) was over 10 µM. For the same molecule, the EC50 (HepG2; Table 3 classes) was 2 to 5 µM, the EC50 (HepG2; Table 4 classes) was 1 to 5 µM and the inhibition at 198 µM (HepG2; [3]) was 64%. It also gave an inhibition at 198 µM (MOLT-4; [2]) of 84.1%, an EC50 (MOLT-4; Homo sapiens, Table 3 classes) of under 0.2 µM and an EC50 (MOLT-4; Table 4 classes) of under 0.2 µM. For the same molecule, the “DNA damage in LSCs compared with bulk tumour cells (γH2A.X phosphorylation)” value [1] was “level of DNA damage in the LSCs was significantly lower than the bulk tumour cells”, the “change of potency (mean LD50) under hypoxic versus normoxic conditions” value (KG1a cells; in words) was “significant loss in potency under hypoxic conditions; also recorded: significant reduction in potency” and the “change of potency (mean LD50) under hypoxic versus normoxic conditions” value (KG1a cells; in words, listed as clofarabine) was “significant increase in mean LD50 under hypoxic conditions; also recorded: significant reduction in potency”. The “Hypoxia Mean LD50” value (KG1a cells; 48 h, hypoxic (5% O2)) was 53.1 nM, the “Mean LD50 (Normoxia Mean LD50)” value (KG1a cells; 48 h, normoxic (20% oxygen)) was 16.9 nM and the “mean LD50 under hypoxic conditions” value (KG1a cells; hypoxic (5% oxygen)) was 53.1 nM. For the same molecule, the “potency in KG1a cells (dose-response curves)” value (KG1a cells; in words) was “highest potency”, the “mean LD50” value (KG1a cells; normoxic) was 16.9 nM and the “Ratio Normoxia/Hypoxia” value (KG1a cells; ratio of mean LD50 values) was 31.8. It also gave an EC50 (KG-1; Table 4 classes, read-out: Ab EC50) of under 0.2 µM, an inhibition at 198 µM (KG-1; [3]) of 93% and an EC50 (HT29; Table 3 classes) of 0.2 to 2 µM. The EC50 (HT29; Table 4 classes) was 0.2 to 1 µM, the inhibition at 198 µM (HT29; [3]) was 64% and the half-life at 1 μM (in vitro) was over 2 h. It also gave an EC50 (RPMI-8226; Table 3 classes) of 5 to 10 µM, an EC50 (RPMI-8226; Table 4 classes) of over 10 µM and an inhibition at 198 µM (RPMI-8226; percentage inhibition at the highest concentration tested, read-out: Top Inh) of 89%.
